Here are results for three compounds from patent US6809065B2, “Herbicide containing substituted pyrazole derivative as active ingredient” (SDS Biotech K.K., priority 2001, dated 2004).

Data set [1] deals with Chenopodium album. The experiment in a line: Upland field foliage treatment (Test Example 1). As to conditions: foliage treatment 14th day after sowing, wettable powder, 1 kg active ingredient per hectare, evaluated 21st day after application. In kind it is in vivo. An outline of the steps:
(§1)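 Read-out is a visual index scored 21 days after treatment. Higher values mean more herbicidal effect on weeds and lower values mean better crop safety. Plants were raised from seed in upland soil and received a leaf-surface spray of 1 kg active ingredient per hectare at 14 days.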

The subject of data set [2] is Digitaria adscendens. The experiment in a line: Upland field foliage treatment (Test Example 1). In kind it is in vivo. As to conditions: foliage treatment 14th day after sowing, wettable powder, 1 kg active ingredient per hectare, evaluated 21st day after application. An outline of the steps:
as §1

Data set [3] has as its system Setaria viridis. The experiment in a line: Upland field foliage treatment (Test Example 1). In kind it is in vivo. As to conditions: foliage treatment 14th day after sowing, wettable powder, 1 kg active ingredient per hectare, evaluated 21st day after application. An outline of the steps:
as §1

The test system of data set [4] is Stellaria media. The experiment in a line: Upland field foliage treatment (Test Example 1). In kind it is in vivo. As to conditions: foliage treatment 14th day after sowing, wettable powder, 1 kg active ingredient per hectare, evaluated 21st day after application. An outline of the steps:
as §1

Data set [5] concerns soybean (Glycine max). The experiment in a line: Upland field foliage treatment (Test Example 1), crop. In kind it is in vivo. As to conditions: foliage treatment 14th day after sowing, 1 kg active ingredient per hectare, evaluated 21st day, lower index = higher safety. An outline of the steps: as §1
For data set [6], the system named is wheat (Triticum aestivum). The data set is described as above. In kind it is in vivo. As to conditions: foliage treatment 14th day after sowing, 1 kg active ingredient per hectare, evaluated 21st day, lower index = higher safety. An outline of the steps: as §1
Data set [7] relates to Chenopodium album. Put plainly: Upland soil treatment (Test Example 2). The format is in vivo. As to conditions: soil surface treatment next day after sowing, wettable powder, 1 kg active ingredient per hectare, evaluated 21st day after application. In outline: (§2)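 Scores were assigned 21 days after treatment on an index where higher means stronger weed control and, for crops, lower means greater safety. A wettable-powder formulation at 1 kg a.i./ha was applied to the soil surface one day after sowing seeds under about 1 cm of upland soil.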

The subject of data set [8] is Digitaria adscendens. The experiment in a line: Upland soil treatment (Test Example 2). The format is in vivo. As to conditions: soil surface treatment next day after sowing, wettable powder, 1 kg active ingredient per hectare, evaluated 21st day after application. An outline of the steps:
as §2

Data set [9] deals with Setaria viridis. The experiment in a line: Upland soil treatment (Test Example 2). The format is in vivo. As to conditions: soil surface treatment next day after sowing, wettable powder, 1 kg active ingredient per hectare, evaluated 21st day after application. An outline of the steps:
as §2

For data set [10], the system named is Stellaria media. Put plainly: Upland soil treatment (Test Example 2). As to conditions: soil surface treatment next day after sowing, wettable powder, 1 kg active ingredient per hectare, evaluated 21st day after application. The format is in vivo. In outline:
as §2

Data set [11] relates to soybean (Glycine max). The experiment in a line: Upland soil treatment (Test Example 2), crop. The format is in vivo. As to conditions: soil surface treatment next day after sowing, 1 kg active ingredient per hectare, evaluated 21st day, lower index = higher safety. An outline of the steps: as §2
Data set [12] relates to wheat (Triticum aestivum). Put plainly: Upland soil treatment (Test Example 2), crop. In kind it is in vivo. As to conditions: soil surface treatment next day after sowing, 1 kg active ingredient per hectare, evaluated 21st day, lower index = higher safety. An outline of the steps:
as §2

The subject of data set [13] is Echinochloa spp. Put plainly: Paddy field treatment (Test Example 3). In kind it is in vivo, Echinochloa crusgalli. As to conditions: paddy pot, submerged 4 cm, dropped on water surface 10th day after transplantation, 1 kg active ingredient per hectare, evaluated 21st day. In outline:
(§3)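 Pot test, flooded paddy soil (4 cm water); weeds sown, 2-leaf rice (Koshihikari) transplanted. Day 10 post-transplant: WP dropped on water, 1 kg a.i./ha. Score index at 21 d after application; higher = stronger herbicidal effect.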

For data set [14], the system named is Ammannia multiflora. The experiment in a line: Paddy field treatment (Test Example 3). As to conditions: paddy pot, submerged 4 cm, dropped on water surface 10th day after transplantation, 1 kg active ingredient per hectare, evaluated 21st day. In kind it is in vivo. In outline: as §3
The subject of data set [15] is Monochoria vaginalis. Put plainly: Paddy field treatment (Test Example 3). As to conditions: paddy pot, submerged 4 cm, dropped on water surface 10th day after transplantation, 1 kg active ingredient per hectare, evaluated 21st day. In kind it is in vivo. An outline of the steps: as §3
For data set [16], the system named is Scirpus juncoides. Put plainly: Paddy field treatment (Test Example 3). The format is in vivo. As to conditions: paddy pot, submerged 4 cm, dropped on water surface 10th day after transplantation, 1 kg active ingredient per hectare, evaluated 21st day. An outline of the steps: as §3
Data set [17] concerns rice (Oryza sative, variety: Koshihikari). Put plainly: Paddy field treatment (Test Example 3), crop. The format is in vivo, Oryza sativa. As to conditions: transplanted rice two-leaf period, water surface treatment 10th day after transplantation, 1 kg active ingredient per hectare, evaluated 21st day, lower index = higher safety. In outline: as §3

Turning to `COC=C(Cn1nc(-c2cccc(C)c2)c(Br)c1C)C(=O)OC` [Compound 26], the “Herbicidal activity Chenopodium album” value was 5 (herbicidal effect of not less than 90% by weight) in [1]; 4 (herbicidal effect of not less than 70% by weight and less than 90% by weight) in data set [7]. Moreover, the “Herbicidal activity Digitaria adscendens” value in data set [2] is 5 (herbicidal effect of not less than 90% by weight); in data set [8], 4 (herbicidal effect of not less than 70% by weight and less than 90% by weight). In addition, the “Herbicidal activity Setaria viridis” value in data set [3] is 4 (herbicidal effect of not less than 70% by weight and less than 90% by weight); in data set [9], 4 (herbicidal effect of not less than 70% by weight and less than 90% by weight). In addition, the “Herbicidal activity Stellaria media” value in data set [4] was 5 (herbicidal effect of not less than 90% by weight); in data set [10], 4 (herbicidal effect of not less than 70% by weight and less than 90% by weight). Also, the “Herbicidal activity Glycine max” value in data set [5] was 1 (herbicidal effect of not less than 10% by weight and less than 30% by weight); in [11], 0 (herbicidal effect of not less than 0% by weight and less than 10% by weight). Moreover, the “Herbicidal activity Triticum aestivum” value in data set [6] was 0 (herbicidal effect of not less than 0% by weight and less than 10% by weight); in data set [12] it was 0 (herbicidal effect of not less than 0% by weight and less than 10% by weight). Besides, the “Herbicidal activity Echinochloa spp.” value in [13] is 5 (herbicidal effect of not less than 90% by weight). Moreover, the “Herbicidal activity Ammannia multiflora” value in [14] is 5 (herbicidal effect of not less than 90% by weight). For the same compound, the “Herbicidal activity Monochoria vaginalis” value in [15] was 5 (herbicidal effect of not less than 90% by weight). For the same compound, in data set [16], the “Herbicidal activity Scirpus juncoides” value is 4 (herbicidal effect of not less than 70% by weight and less than 90% by weight). For the same compound, in data set [17], the “Herbicidal activity Oryza sativa” value was 0 (herbicidal effect of not less than 0% by weight and less than 10% by weight).

As for `COC=C(Cn1nc(-c2ccccc2Cl)c(Br)c1C)C(=O)OC` [Compound 27], the “Herbicidal activity Chenopodium album” value in [1] was 5 (herbicidal effect of not less than 90% by weight); in data set [7], 4 (herbicidal effect of not less than 70% by weight and less than 90% by weight). For the same compound, the “Herbicidal activity Digitaria adscendens” value in data set [2] and in data set [8] was 5 (herbicidal effect of not less than 90% by weight) each time. In addition, the “Herbicidal activity Setaria viridis” value in data set [3] is 4 (herbicidal effect of not less than 70% by weight and less than 90% by weight); in data set [9], 4 (herbicidal effect of not less than 70% by weight and less than 90% by weight). For the same compound, the “Herbicidal activity Stellaria media” value in data set [4] and in data set [10] was 5 (herbicidal effect of not less than 90% by weight) in each case. Besides, the “Herbicidal activity Glycine max” value is 0 (herbicidal effect of not less than 0% by weight and less than 10% by weight) in data set [5]; 0 (herbicidal effect of not less than 0% by weight and less than 10% by weight) in [11]. Further, the “Herbicidal activity Triticum aestivum” value in data set [6] was 0 (herbicidal effect of not less than 0% by weight and less than 10% by weight); in data set [12], 0 (herbicidal effect of not less than 0% by weight and less than 10% by weight). Further, the “Herbicidal activity Echinochloa spp.” value in [13] was 5 (herbicidal effect of not less than 90% by weight). In addition, the “Herbicidal activity Ammannia multiflora” value in data set [14] is 5 (herbicidal effect of not less than 90% by weight). Besides, the “Herbicidal activity Monochoria vaginalis” value in data set [15] was 5 (herbicidal effect of not less than 90% by weight). Further, the “Herbicidal activity Scirpus juncoides” value in [16] is recorded as 5 (herbicidal effect of not less than 90% by weight). Also, the “Herbicidal activity Oryza sativa” value in data set [17] is 1 (herbicidal effect of not less than 10% by weight and less than 30% by weight).

Take `COC=C(Cn1nc(-c2cc(C)ccc2C)c(Br)c1C)C(=O)OC` [Compound 28]: the “Herbicidal activity Chenopodium album” value in data set [1] was 5 (herbicidal effect of not less than 90% by weight); in data set [7], 4 (herbicidal effect of not less than 70% by weight and less than 90% by weight). Besides, the “Herbicidal activity Digitaria adscendens” value in [2] was 4 (herbicidal effect of not less than 70% by weight and less than 90% by weight); in [8] it was 4 (herbicidal effect of not less than 70% by weight and less than 90% by weight). The “Herbicidal activity Setaria viridis” value in [3] was 4 (herbicidal effect of not less than 70% by weight and less than 90% by weight); in data set [9], 4 (herbicidal effect of not less than 70% by weight and less than 90% by weight). The “Herbicidal activity Stellaria media” value in [4] is 5 (herbicidal effect of not less than 90% by weight); in data set [10], 4 (herbicidal effect of not less than 70% by weight and less than 90% by weight). In addition, the “Herbicidal activity Glycine max” value in [5] was 0 (herbicidal effect of not less than 0% by weight and less than 10% by weight); in [11], 0 (herbicidal effect of not less than 0% by weight and less than 10% by weight). In addition, the “Herbicidal activity Triticum aestivum” value in data set [6] was 0 (herbicidal effect of not less than 0% by weight and less than 10% by weight); in data set [12], 0 (herbicidal effect of not less than 0% by weight and less than 10% by weight). Besides, the “Herbicidal activity Echinochloa spp.” value in [13] is 5 (herbicidal effect of not less than 90% by weight). The “Herbicidal activity Ammannia multiflora” value in [14] is on record as 5 (herbicidal effect of not less than 90% by weight). Also, in data set [15], the “Herbicidal activity Monochoria vaginalis” value is reported as 5 (herbicidal effect of not less than 90% by weight). In addition, in [16], the “Herbicidal activity Scirpus juncoides” value is 5 (herbicidal effect of not less than 90% by weight). Also, in [17], the “Herbicidal activity Oryza sativa” value is 1 (herbicidal effect of not less than 10% by weight and less than 30% by weight).
